Earlier results on 3 compounds are cited in patent publication US20130102469A1, “Method and compound for removing flora from sewer lines” (Swartz family dba Olvidium, priority 2011, published 2013).

This data set relates to tree roots.

For the compound `N#Cc1c(Cl)cccc1Cl` [Dichlobenil, 2,6 dichlorobenzonitrile], the “distance back from the contact site over which roots are killed” value (sewer line root control) is 1-2 ″.
Consider `c1cc[n+]2c(c1)-c1cccc[n+]1CC2` [Diquat], for which, for the setting “sewer line use, roots coated with organic detritus”, the “root kill (in words)” value is “spotty and inconsistent root kill”.
`CNC(=S)[S-].[Na+]` [Metham Sodium]: the root kill (inside the pipe and outside the pipe where the gas travels) is 100%.
